Experimental data from ChEMBL document CHEMBL4321866, “Discovery of Highly Potent and Efficient PROTAC Degraders of Androgen Receptor (AR) by Employing Weak Binding Affinity VHL E3 Ligase Ligands” (J Med Chem, 2019).
The source made the active and inactive calls. The rule behind the calls is not given here.

Tests used:
[1] = molecular target: T1, von Hippel-Lindau disease tumor suppressor/Androgen receptor (Homo sapiens, UniProt P10275+P40337); assay: Protac activity against VHL/AR in AR-positive human LNCAP cells assessed as AR degradation at 100 nM preincubated with proteasome inhibitor, MG132 for 2 hrs followed by incubation with compound for 6 hrs by Western blot analysis; type: cell-based
Target sequence in this assay (P10275 whole entry, looked up): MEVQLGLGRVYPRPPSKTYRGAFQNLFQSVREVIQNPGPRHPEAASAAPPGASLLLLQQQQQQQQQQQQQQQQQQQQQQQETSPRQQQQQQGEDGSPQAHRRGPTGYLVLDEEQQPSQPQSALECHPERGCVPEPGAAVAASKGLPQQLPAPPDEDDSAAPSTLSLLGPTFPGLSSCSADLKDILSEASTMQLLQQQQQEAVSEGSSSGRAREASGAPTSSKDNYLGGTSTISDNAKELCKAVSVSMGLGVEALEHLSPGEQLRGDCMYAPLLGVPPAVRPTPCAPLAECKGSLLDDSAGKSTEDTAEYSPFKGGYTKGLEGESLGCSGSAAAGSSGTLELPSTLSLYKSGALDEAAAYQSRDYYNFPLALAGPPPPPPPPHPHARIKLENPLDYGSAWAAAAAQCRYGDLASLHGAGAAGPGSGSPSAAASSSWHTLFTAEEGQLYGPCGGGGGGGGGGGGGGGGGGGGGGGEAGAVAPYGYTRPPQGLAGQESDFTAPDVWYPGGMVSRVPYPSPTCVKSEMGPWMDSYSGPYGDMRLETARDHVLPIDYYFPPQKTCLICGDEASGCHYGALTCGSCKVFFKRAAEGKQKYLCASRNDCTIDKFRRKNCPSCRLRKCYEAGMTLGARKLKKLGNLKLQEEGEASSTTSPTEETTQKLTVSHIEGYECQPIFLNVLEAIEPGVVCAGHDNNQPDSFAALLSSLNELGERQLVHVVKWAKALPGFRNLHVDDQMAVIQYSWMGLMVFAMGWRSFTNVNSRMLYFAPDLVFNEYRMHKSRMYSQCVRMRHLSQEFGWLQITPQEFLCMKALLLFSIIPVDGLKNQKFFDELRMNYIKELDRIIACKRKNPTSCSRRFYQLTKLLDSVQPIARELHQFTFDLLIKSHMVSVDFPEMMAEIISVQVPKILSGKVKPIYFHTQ
Target sequence in this assay (P40337 whole entry, looked up): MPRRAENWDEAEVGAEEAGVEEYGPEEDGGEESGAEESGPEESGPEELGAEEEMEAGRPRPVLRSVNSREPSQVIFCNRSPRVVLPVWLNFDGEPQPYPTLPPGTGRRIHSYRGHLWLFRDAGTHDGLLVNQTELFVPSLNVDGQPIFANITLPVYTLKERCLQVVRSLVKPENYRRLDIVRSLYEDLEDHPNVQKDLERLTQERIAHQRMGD

LNCaP = assay: Antiproliferative activity against AR-positive human LNCAP cells incubated for 7 days in presence of AR agonist, R1881 by WST-8 assay; type: functional, cell-based; conditions: 168 h
[2] = molecular target: T1, von Hippel-Lindau disease tumor suppressor/Androgen receptor; assay: Protac activity against VHL/AR in AR-positive human 22Rv1 cells assessed as induction of AR degradation incubated for 6 hrs by Western blot analysis
[3] = molecular target: T1, von Hippel-Lindau disease tumor suppressor/Androgen receptor; assay: Protac activity against VHL/AR in AR-positive human LNCAP cells assessed as reduction in FKBP5 mRNA expression level at 10 nM incubated for 24 hrs by qRT-PCR analysis relative to control; type: cell-based; parameters: scale not given: the % may be the effect or the level left
Target sequence in this assay (P10275 whole entry, looked up): as the sequence (P10275 whole entry, looked up) above
Target sequence in this assay (P40337 whole entry, looked up): as the sequence (P40337 whole entry, looked up) above

[4] = molecular target: T1, von Hippel-Lindau disease tumor suppressor/Androgen receptor; assay: Protac activity against VHL/AR in AR-positive human LNCAP cells assessed as induction of AR degradation by measuring reduction in AR protein level at 30 nM incubated for 6 hrs by Western blot analysis relative to control; type: cell-based; parameters: scale not given: the % may be the effect or the level left
Target sequence in this assay (P10275 whole entry, looked up): as the sequence (P10275 whole entry, looked up) above
Target sequence in this assay (P40337 whole entry, looked up): as the sequence (P40337 whole entry, looked up) above

[5] = molecular target: T1, von Hippel-Lindau disease tumor suppressor/Androgen receptor; assay: Protac activity against VHL/AR in AR-positive human LNCAP cells assessed as induction of AR degradation by measuring reduction in AR protein level at 100 nM incubated for 3 hrs by Western blot analysis; type: cell-based
Target sequence in this assay (P10275 whole entry, looked up): as the sequence (P10275 whole entry, looked up) above
Target sequence in this assay (P40337 whole entry, looked up): as the sequence (P40337 whole entry, looked up) above

[6] = molecular target: T1, von Hippel-Lindau disease tumor suppressor/Androgen receptor; assay: Protac activity against VHL/AR in AR-positive human LNCAP cells assessed as induction of AR degradation at 0.1 uM incubated for 6 hrs by Western blot analysis relative to control; type: cell-based
Target sequence in this assay (P10275 whole entry, looked up): as the sequence (P10275 whole entry, looked up) above
Target sequence in this assay (P40337 whole entry, looked up): as the sequence (P40337 whole entry, looked up) above

[7] = molecular target: T1, von Hippel-Lindau disease tumor suppressor/Androgen receptor; assay: Protac activity against VHL/AR in AR-positive human LNCAP cells assessed as AR degradation at 100 nM preincubated with NEDD8-activating E1 enzyme inhibitor, MLN4924 for 2 hrs followed by incubation with compound for 6 hrs by Western blot analysis; type: cell-based
Target sequence in this assay (P10275 whole entry, looked up): as the sequence (P10275 whole entry, looked up) above
Target sequence in this assay (P40337 whole entry, looked up): as the sequence (P40337 whole entry, looked up) above

[8] = molecular target: T1, von Hippel-Lindau disease tumor suppressor/Androgen receptor; assay: Protac activity against VHL/AR in AR-positive human VCaP cells assessed as reduction in ERG mRNA expression level incubated for 24 hrs by qRT-PCR analysis relative to N-((1r,3r)-3-(3-Chloro-4-cyanophenoxy)-2,2,4,4-tetramethylcyclobutyl)-1-(2-hydroxyethyl)-1H-pyrazole-4-carboxamide; type: cell-based
[9] = molecular target: T1, von Hippel-Lindau disease tumor suppressor/Androgen receptor; assay: Protac activity against VHL/AR in AR-positive human LNCAP cells assessed as reduction in FKBP5 mRNA expression level incubated for 24 hrs by qRT-PCR analysis relative to N-((1r,3r)-3-(3-Chloro-4-cyanophenoxy)-2,2,4,4-tetramethylcyclobutyl)-1-(2-hydroxyethyl)-1H-pyrazole-4-carboxamide; type: cell-based
[10] = molecular target: T1, von Hippel-Lindau disease tumor suppressor/Androgen receptor; assay: Protac activity against VHL/AR in AR-positive human LNCAP cells assessed as AR degradation at 100 nM preincubated with VHL ligand VHLa for 2 hrs followed by incubation with compound for 6 hrs by Western blot analysis; type: cell-based
[11] = molecular target: T1, von Hippel-Lindau disease tumor suppressor/Androgen receptor; assay: Protac activity against VHL/AR in AR-positive human LNCAP cells assessed as reduction in TMPRSS2 mRNA expression level at 10 nM incubated for 24 hrs by qRT-PCR analysis relative to control; type: cell-based; parameters: scale not given: the % may be the effect or the level left
[12] = molecular target: T1, von Hippel-Lindau disease tumor suppressor/Androgen receptor; assay: Protac activity against VHL/AR in AR-positive human VCaP cells assessed as induction of AR degradation incubated for 6 hrs by Western blot analysis; type: cell-based
[13] = molecular target: T1, von Hippel-Lindau disease tumor suppressor/Androgen receptor; assay: Protac activity against VHL/AR in AR-positive human VCaP cells assessed as reduction in TMPRSS2 mRNA expression level incubated for 24 hrs by qRT-PCR analysis relative to N-((1r,3r)-3-(3-Chloro-4-cyanophenoxy)-2,2,4,4-tetramethylcyclobutyl)-1-(2-hydroxyethyl)-1H-pyrazole-4-carboxamide; type: cell-based
[14] = molecular target: T1, von Hippel-Lindau disease tumor suppressor/Androgen receptor; assay: Protac activity against VHL/AR in AR-positive human LNCAP cells assessed as AR degradation at 100 nM preincubated with AR antagonist N-((1r,3r)-3-(3-Chloro-4-cyanophenoxy)-2,2,4,4-tetramethylcyclobutyl)-1-(2-hydroxyethyl)-1H-pyrazole-4-carboxamide for 2 hrs followed by incubation with compound addition for 6 hrs by Western blot analysis; type: cell-based
[15] = molecular target: T1, von Hippel-Lindau disease tumor suppressor/Androgen receptor; assay: Protac activity against VHL/AR in AR-positive human LNCAP cells assessed as induction of AR degradation incubated for 6 hrs by Western blot analysis; type: cell-based
[16] = molecular target: T1, von Hippel-Lindau disease tumor suppressor/Androgen receptor; assay: Protac activity against VHL/AR in AR-positive human LNCAP cells assessed as reduction in TMPRSS2 mRNA expression level incubated for 24 hrs by qRT-PCR analysis; type: cell-based
[17] = molecular target: T1, von Hippel-Lindau disease tumor suppressor/Androgen receptor; assay: Protac activity against VHL/AR in AR-positive human VCaP cells assessed as induction of AR degradation by measuring reduction in AR protein level at 100 nM incubated for 3 hrs by Western blot analysis relative to control; type: cell-based; parameters: scale not given: the % may be the effect or the level left
[18] = molecular target: T1, von Hippel-Lindau disease tumor suppressor/Androgen receptor; assay: Protac activity against VHL/AR in AR-positive human LNCAP cells assessed as reduction in TMPRSS2 mRNA expression level incubated for 24 hrs by qRT-PCR analysis relative to N-((1r,3r)-3-(3-Chloro-4-cyanophenoxy)-2,2,4,4-tetramethylcyclobutyl)-1-(2-hydroxyethyl)-1H-pyrazole-4-carboxamide; type: cell-based
[19] = molecular target: T1, von Hippel-Lindau disease tumor suppressor/Androgen receptor; assay: Protac activity against VHL/AR in AR-positive human LNCAP cells assessed as reduction in PSA mRNA expression level incubated for 24 hrs by qRT-PCR analysis; type: cell-based
VCaP [20] = assay: Potency index, ratio of IC50 for AR antagonist N-((1r,3r)-3-(3-Chloro-4-cyanophenoxy)-2,2,4,4-tetramethylcyclobutyl)-1-(2-hydroxyethyl)-1H-pyrazole-4-carboxamide to IC50 for test compound against AR-positive human VCaP cells incubated for 7 days in presence of AR agonist R1881 by WST-8 assay; type: functional
[21] = molecular target: T1, von Hippel-Lindau disease tumor suppressor/Androgen receptor; assay: Protac activity against VHL/AR in AR-positive human LNCAP cells assessed as induction of AR degradation at 0.01 uM incubated for 6 hrs by Western blot analysis relative to control; type: cell-based
[22] = molecular target: T1, von Hippel-Lindau disease tumor suppressor/Androgen receptor; assay: Protac activity against VHL/AR in AR-positive human VCaP cells assessed as reduction in FKBP5 mRNA expression level incubated for 24 hrs by qRT-PCR analysis relative to N-((1r,3r)-3-(3-Chloro-4-cyanophenoxy)-2,2,4,4-tetramethylcyclobutyl)-1-(2-hydroxyethyl)-1H-pyrazole-4-carboxamide; type: cell-based
[23] = molecular target: T1, von Hippel-Lindau disease tumor suppressor/Androgen receptor; assay: Protac activity against VHL/AR in AR-positive human LNCAP cells assessed as reduction in FKBP5 mRNA expression level incubated for 24 hrs by qRT-PCR analysis; type: cell-based
[24] = molecular target: T1, von Hippel-Lindau disease tumor suppressor/Androgen receptor; assay: Protac activity against VHL/AR in AR-positive human LNCAP cells assessed as reduction in PSA mRNA expression level at 10 nM incubated for 24 hrs by qRT-PCR analysis relative to control; type: cell-based; parameters: scale not given: the % may be the effect or the level left
[25] = molecular target: T1, von Hippel-Lindau disease tumor suppressor/Androgen receptor; assay: Protac activity against VHL/AR in AR-positive human VCaP cells assessed as induction of AR degradation by measuring reduction in AR protein level at 30 nM incubated for 6 hrs by Western blot analysis relative to control; type: cell-based; parameters: scale not given: the % may be the effect or the level left
VCaP [26] = assay: Antiproliferative activity against AR- positive human VCaP cells incubated for 7 days in presence of AR agonist, R1881 by WST-8 assay; type: functional, cell-based; conditions: 168 h
[27] = molecular target: T1, von Hippel-Lindau disease tumor suppressor/Androgen receptor; assay: Protac activity against VHL/AR in AR-positive human 22Rv1 cells assessed as induction of AR degradation by measuring reduction in AR protein level at 10 nM incubated for 6 hrs by Western blot analysis relative to control; parameters: scale not given: the % may be the effect or the level left
[28] = molecular target: T1, von Hippel-Lindau disease tumor suppressor/Androgen receptor; assay: Protac activity against VHL/AR in AR-positive human LNCAP cells assessed as reduction in PSA mRNA expression level incubated for 24 hrs by qRT-PCR analysis relative to N-((1r,3r)-3-(3-Chloro-4-cyanophenoxy)-2,2,4,4-tetramethylcyclobutyl)-1-(2-hydroxyethyl)-1H-pyrazole-4-carboxamide; type: cell-based
[29] = molecular target: T1, von Hippel-Lindau disease tumor suppressor/Androgen receptor; assay: Protac activity against VHL/AR in AR-positive human LNCAP cells assessed as induction of AR degradation at 1 uM incubated for 6 hrs by Western blot analysis relative to control; type: cell-based

SMILES: Cc1cc([C@H](C(=O)N2C[C@H](O)C[C@H]2C(=O)N[C@@H](CC(=O)N2CCC(C#Cc3ccc(C(=O)N[C@H]4C(C)(C)[C@H](Oc5ccc(C#N)c(Cl)c5)C4(C)C)cc3)CC2)c2ccccc2)C(C)C)on1
- Activity [1]: inactive
- IC50 (LNCaP): 2 nM
- Activity [2]: Dose-dependent effect
- DC50 [2]: 0.153 nM
- Activity [3]: > 50%
- Activity [4]: > 95%
- Activity [5]: Active
- Activity [6]: > 95%
- Activity [7]: inactive
- fold change (FC) [8]: > 10
- fold change (FC) [9]: > 10
- Activity [10]: inactive
- Activity [11]: > 50%
- Activity [12]: Dose-dependent effect
- DC50 [12]: 0.969 nM
- fold change (FC) [13]: > 10
- Activity [14]: inactive
- Activity [15]: Dose-dependent effect
- DC50 [15]: 0.535 nM
- Activity [16]: Dose-dependent effect
- Activity [17]: > 90%
- fold change (FC) [18]: > 10
- Activity [19]: Dose-dependent effect
- Ratio IC50 (VCaP [20]): 30
- Activity [21]: 90%
- fold change (FC) [22]: > 10
- Activity [23]: Dose-dependent effect
- Activity [24]: > 50%
- Activity [25]: > 95%
- IC50 (VCaP [26]): 6 nM
- Activity [27]: > 95%
- fold change (FC) [28]: > 10
- Activity [29]: > 99%
